Measurements as given in patent US12350290B2, “Compositions and methods that promote hypoxia or the hypoxia response for treatment and prevention of mitochondrial dysfunction and oxidative stress disorders” (The General Hospital Corporation, priority 2015, dated 2025).

What was measured:
[1] = system: HT-29s, HEK 293s and K562s; test: Rescue of growth defect caused by respiratory chain inhibition; type: cell-based
Text: After VHL was confirmed as an effective therapeutic target for mitochondrial disease, clinically-relevant options for triggering the hypoxia response were studied. While a VHL-inhibitor has been reported (Buckley et al., J. Am. Chem. Soc. 134:4465-68 (2012)), it is not cell permeable. However, PHD inhibitors have been extensively developed for the treatment of anemia of chronic kidney disease and ischemic injury (Rabinowitz, J. Med. Chem. 56:9369-9402 (2013)). The small molecule PHD inhibitor, FG-4592, also known as roxadustat, is currently in Phase III clinical trials for chronic kidney disease. […] FG-4592 treatment may mimic VHL-knockout, thus triggering a broader hypoxia transcriptional program. Compounds that trigger the hypoxia response including VHL-inhibitors and PHD inhibitors are therapeutics for mitochondrial dysfunction. Pre-treatment and incubation with FG-4592 almost completely rescued the growth defects caused by deficiency of multiple respiratory complexes, in multiple cell lines (FIGS. 12-13). […] Complex I, III or V inhibition stunts cell growth in most cell lines, including HT-29s, HEK 293s and […]. […] The nearly full rescue of the disease state across different cell lines and across chemical lesions highlights the general utility of this approach.

HIF1α = HIF1α stabilization in cell culture; type: cell-based; conditions: for effect of respiratory chain inhibition on HIF1α stabilization: hypoxia, respiratory chain inhibitor alone
Text: It has previously been noted that a paradox exists between mitochondrial dysfunction and cellular sensing of hypoxia (Chandel et al., Proc. Natl. Acad. Sci. U.S.A. 95:11715-20 (1998)). In cell culture, inhibition of the respiratory chain prevents HIF stabilization, even under low oxygen conditions that would otherwise trigger the hypoxia response. Proposed explanations include higher cellular oxygen tensions and […] ROS production during states of mitochondrial dysfunction. While this phenomenon has been noted in the hypoxia field, it has received less attention in the context of mitochondrial disease pathogenesis. If such a paradox extends to mitochondrial disease patients, such individuals may be unable to stabilize HIF in physiological conditions of hypoxia.

[2] = system: HIF-responsive genes (HK2, GLUT1, LDHA, PDK1); test: Transcription of energy metabolism genes (hypoxia transcriptional program); type: cell-based
Text: The HIF transcriptional response is believed to be protective during states of hypoxia, at least in part by causing a rewiring of energy metabolism. By shifting from aerobic respiration to anaerobic glycolysis, the HIF1α response can maintain the energy supply at low oxygen tensions. FG-4592 caused normoxic stabilization of HIF proteins. […] Glucose import and phosphorylation are rate-limiting steps in the glycolytic flux of many tissues. […] HIF1α activation is also known to shunt the carbon supply away from the TCA cycle and towards the LDH reaction. Several mechanisms have been proposed for this shift away from aerobic respiration, including pyruvate dehydrogenase phosphorylation. […] Thus, cells were unable to mount the appropriate transcriptional response by endogenous mechanisms.

HT-29 cells = test: Anaerobic glycolysis measured as lactic acid; type: cell-based; conditions: basal conditions and with respiratory chain inhibition
Text: (§1) The shift in energy metabolism was confirmed by measuring lactic acid as the end-product of anaerobic glycolysis and oxygen consumption as a proxy for aerobic respiration. […] Thus cells are able to shift towards glycolysis using endogenous defense mechanisms; however, a transcriptional response is needed to increase the glycolytic flux enough to maintain cellular growth rates. Furthermore, basal oxygen consumption was decreased with FG-4592 treatment. This may be protective in the setting of mitochondrial dysfunction, as it may limit the amount of ROS produced by impaired electron transport. Genetic and small molecule activation of the HIF pathway enabled cells to cope with mitochondrial dysfunction at multiple steps of the electron transport chain and in multiple cell types. The small molecule, FG-4592, normoxically stabilized HIF and thereby increased glycolysis beyond allosteric mechanisms. Furthermore, it bypassed the paradox between mitochondrial dysfunction and HIF stabilization during hypoxia.

multiple cell types = test: Oxygen consumption as proxy for aerobic respiration; type: cell-based; conditions: FG-4592 treatment
Text: as §1

[3] = system: hypoxia response elements (HREs) fused to GFP; test: Zebrafish hypoxia reporter strain (HRE-GFP) fluorescence; type: in vivo; conditions: 6 hours of exposure to 2.5 μM FG-4592
Text: A zebrafish reporter strain was used to monitor activation of the hypoxia transcriptional response (Santhakumar et al., Cancer Res. 72, 4017-27 (2012)). The reporter fish has a promoter containing hypoxia response elements (HREs) fused to GFP. Hypoxia exposure or VHL knockdown causes an increase in GFP expression, allowing for in vivo monitoring of the hypoxia response. This model system could be used to monitor drug-target engagement and pharmacodynamics of a HIF activator (Chowdhury et al., ACS Chem Biol. 8:1488-96 (2013)).
Antimycin inhibits oxygen consumption of zebrafish embryos (Stackley, et al., PLOS One. 6, e25652 (2011)).

zebrafish embryos = test: Zebrafish embryo survival with Antimycin
K562 cells = test: Mitochondrial disease model: K562 cell growth with Antimycin; type: cell-based; conditions: three weeks
Experimental: Mitochondrial disease was modeled in the suspension cell line, K562, and a CRISPR screen was performed to identify potential drug targets. The natural product, Antimycin, was used as a complex III inhibitor of the respiratory chain. In the presence of Antimycin, the respiratory chain is unable to oxidize high energy reducing equivalents to power ATP production. However, redox recycling by the cytoplasmic lactate dehydrogenase reaction, allows other NAD+ dependent reactions to proceed. […] Mitochondrial disease was modeled with the addition of Antimycin alone (moderate disease) or Antimycin in combination with removal of pyruvate (severe disease), using cell growth as a proxy for disease magnitude (FIG. 3). K562 cells were infected with a ˜65,000 sgRNA library, targeting ˜18,000 genes (Shalem et al., Science, 343:84-88 (2014)). After one week of genome editing, the pool of knockout cells were divided into experimental conditions of untreated, moderate disease and severe disease states (FIG. 4). Samples for an enrichment screen were collected by allowing the knockout pool to grow in selection conditions for three weeks. The relative growth between untreated and moderate disease conditions was 100-fold and between untreated and severe disease conditions was 10,000-fold (FIG. 5). […]

Cc1nc(C(=O)NCC(=O)O)c(O)c2ccc(Oc3ccccc3)cc12 [FG-4592, N-[(4-hydroxy-1-methyl-7-phenoxy-3-isoquinolinyl)carbonyl]glycine]
rescue of growth under ATP synthase inhibition ([1]; ATP synthase inhibition): significantly rescued | normal growth rates ([1]; no respiratory chain inhibition): minimally increased | rescue of growth defect from Complex I, III or V inhibition ([1]; ~50 uM FG-4592 in advance and during respiratory chain dysfunction, dose-dependent): nearly or completely rescued this growth defect | HIF1α stabilization (HIF1α; hypoxic conditions): stabilized HIF1α beyond the endogenous hypoxia response of untreated cells | HIF1α stabilization during respiratory chain inhibition (HIF1α; mitochondrial dysfunction, normoxia or hypoxia): enabled HIF1α stabilization in the face of mitochondrial dysfunction | HIF1α stabilization (HIF1α; normoxic conditions): stabilized the transcription factor even during normoxia | transcription of glucose transporter 1 (GLUT1) ([2]; FG-4592 for 24 h): upregulated in multiple cell types | transcription of hexokinase 2 (HK2) ([2]; FG-4592 for 24 h): upregulated in multiple cell types | transcription of lactate dehydrogenase (LDHA) ([2]; FG-4592 treatment): similarly upregulated | transcription of pyruvate dehydrogenase kinase (PDK1) ([2]; after FG-4592 treatment): significant upregulation | hypoxia transcriptional program ([2]; during respiratory chain inhibition): triggered the hypoxia transcriptional program, even during respiratory chain inhibition | increase of glycolysis (HT-29 cells): ~60% | basal oxygen consumption (multiple cell types): decreased | fluorescence of reporter fish [3]: robust increase in fluorescence | survival of zebrafish embryos (zebrafish embryos; intermediate concentrations of Antimycin): nearly doubled survival

CC[C@H]1/C=C/C=C/C[C@@H](C)[C@H](O)[C@@](C)(O)C(=O)[C@@H](C)[C@H](O)[C@@H](C)C(=O)[C@@H](C)[C@H](O)[C@@H](C)/C=C/C(=O)O[C@@H]2[C@H](C)[C@H](CC1)O[C@]1(CC[C@H](C)[C@H](C[C@@H](C)O)O1)[C@H]2C [Oligomycin]
effect of respiratory chain inhibition on HIF1α stabilization (HIF1α): prevented HIF1α stabilization during hypoxia

Antimycin
relative growth between untreated and moderate disease conditions (K562 cells; moderate disease: 100 nM Antimycin with 1 mM pyruvate): 100 fold | relative growth between untreated and severe disease conditions (K562 cells; severe disease: 100 nM Antimycin without pyruvate): 10,000 fold | effect of respiratory chain inhibition on HIF1α stabilization (HIF1α): prevented HIF1α stabilization during hypoxia | toxicity to zebrafish embryos (zebrafish embryos; prolonged treatment at low nanomolar concentrations): resulted in death of embryos
